This is an account of results in ChEMBL document CHEMBL1142962, “Antiproliferative prenylated stilbenes and flavonoids from Macaranga alnifolia from the Madagascar rainforest” (J Nat Prod, 2007).

The test system of this assay is A2780 (human ovarian cancer). Put plainly: Antiproliferative activity against drug-sensitive human A2780 cells.

The structures appear in SMILES notation.

The compound `CC(C)=CCc1c(O)cc(/C=C/c2cc(O)c3c(c2)C[C@@H]2C(C)(C)[C@H](O)CC[C@@]2(C)O3)cc1O` [SCHWEINFURTHIN G] returned an IC50 of 0.39 µM.

For `CC(C)=CCC/C(C)=C/Cc1c(O)cc2c(c1O)C(=O)[C@H](O)[C@@H](c1ccc(O)c(O)c1)O2` [DIPLACOL], the IC50 stood at 11.5 µM. The result for `CC(C)=CCC/C(C)=C/Cc1c(O)cc2c(c1O)C(=O)C[C@@H](c1ccc(O)c(O)c1)O2` [NYMPHAEOL A] reads 10.5 µM.

Usually IC50 stands for the concentration needed to halve the response being measured. Read a low IC50 as inhibition by little substance.
